Consider 12 molecules from ChEMBL document CHEMBL5214981, “Thionated aminofluorophthalimides reduce classical markers of cellular inflammation in LPS-challenged RAW 264.7 cells” (Bioorg Med Chem Lett, 2022).

Series [1] has as its system RAW264.7. Put plainly: Cytotoxicity against LPS-activated mouse RAW264.7 cells assessed as reduction in cell viability at 10 uM measured at 24 to 48 hrs by MTS assay relative to control. Type of series: toxicity, cell-based. The conditions noted are these: raw264.7, 10 µM, time 24-48 hrs. On the technique in general: Formazan colour is commonly taken as a measure of viable cells.

The subject of series [2] is RAW264.7. Put plainly: Antiinflammatory activity in LPS-activated mouse RAW264.7 cells assessed as inhibition of TNF-alpha production at 10 uM measured at 24 to 48 hrs after LPS stimulation by ELISA analysis relative to control. The series is classed as functional. More on the design: scale not given: the % may be the effect or the level left. The conditions noted are these: time 24-48 hrs. For orientation: ELISA stands for enzyme-linked immunosorbent assay.

Series [3] concerns RAW264.7. In words: Antiinflammatory activity in LPS-activated mouse RAW264.7 cells assessed as inhibition of nitrite production at 10 uM measured at 24 to 48 hrs after LPS stimulation by ELISA analysis relative to control. Type of series: functional. The conditions noted are these: time 24-48 hrs. The arrangement: scale not given: the % may be the effect or the level left.
Series [4] can be described thus: Metabolic stability in human liver microsomes assessed as compound remaining at 10 uM using pH 7.4 phosphate buffer incubated for 30 mins in the presence of NADPH regenerating system by LC/MS analysis (reference value: 100%). Type of series: ADME, Microsome. To be noted: read-out: Stability. For orientation: Microsomes from liver hold many membrane-bound enzymes, among them those of drug oxidation.

A short description of series [5]: Metabolic stability in human liver microsomes assessed as compound remaining at 10 uM using pH 7.4 phosphate buffer incubated for 60 mins in the presence of NADPH regenerating system by LC/MS analysis (reference value: 100%). The series is classed as ADME, Microsome. The conditions noted are these: read-out: Stability.
A short description of series [6]: Metabolic stability in human liver microsomes assessed as compound remaining at 10 uM using pH 7.4 phosphate buffer incubated for 30 mins in the absence of NADPH regenerating system by LC/MS analysis (reference value: 100%). The series is classed as ADME, Microsome. To be noted: read-out: Stability.
The nature of series [7]: Metabolic stability in human liver microsomes assessed as compound remaining at 10 uM using pH 7.4 phosphate buffer incubated for 60 mins in the absence of NADPH regenerating system by LC/MS analysis (reference value: 100%). The conditions noted are these: read-out: Stability. Type of series: ADME, Microsome.

For the molecule `Nc1ccc(F)c2c1C(=O)N(C1CCC(=S)NC1=O)C2=O` (centres undefined), the Activity stood at 112.4% with RAW264.7 [1], 107% with RAW264.7 [2] and 59% in the series on RAW264.7 [3].

For the molecule `Nc1ccc(F)c2c1C(=O)N(C1CCC(=O)NC1=O)C2=O` (centres undefined), the Activity with RAW264.7 [1] was 100.9%; in the series with RAW264.7 [2], 98%; in the series on RAW264.7 [3], 86%.

Consider `Nc1ccc(F)c2c1C(=S)N(C1CCC(=S)NC1=O)C2=O` (centres undefined), for which the Activity with RAW264.7 [1] amounted to 95%; in the series with RAW264.7 [2], 104.1%; in the series with RAW264.7 [3], 22%. Further, the remaining at 0.5 h, 10 µM was determined as 64% in series [4] and 71% in series [6]. Besides, the values for the remaining at 1 h, 10 µM in series [5] and in series [7] were 41% and 46%, respectively.

On to `CC(C)Nc1ccc(F)c2c1C(=O)N(C1CCC(=S)NC1=O)C2=O` (centres undefined), for which the Activity in the series with RAW264.7 [1] is reported as 112.3%; with RAW264.7 [2] it was 94.4%; in the series with RAW264.7 [3] it was 74.8%.

With `O=C1NC(=S)CCC1N1C(=O)c2c(F)ccc([N+](=O)[O-])c2C1=O` (centres undefined), the results for the Activity in the series on RAW264.7 [1], with RAW264.7 [2] and with RAW264.7 [3] were 44.9%, 51.3% and 4.7%, respectively.

On to `CC(C)Nc1ccc(F)c2c1C(=S)N(C1CCC(=S)NC1=O)C2=O` (centres undefined), for which the figures for the Activity in the series on RAW264.7 [1], with RAW264.7 [2] and in the series with RAW264.7 [3] were 74.1%, 74.7% and 32.3%, respectively.

Take `Nc1c(F)ccc2c1C(=S)N(C1CCC(=S)NC1=O)C2=O` (centres undefined): the Activity in the series with RAW264.7 [1] worked out at 92%; with RAW264.7 [2], 114%; in the series with RAW264.7 [3] it was 40%.

On to `CC(C)Nc1ccc(F)c2c1C(=O)N(C1CCC(=O)NC1=O)C2=O` (centres undefined), for which the Activity in the series on RAW264.7 [1] was 99.9%; in the series on RAW264.7 [2], 87.1%; with RAW264.7 [3], 110.1%.

Take `O=C1CCC(N2C(=O)c3c(F)ccc([N+](=O)[O-])c3C2=O)C(=O)N1` (centres undefined): the Activity is on record as 104.9% in the series on RAW264.7 [1], 86% in the series with RAW264.7 [2] and 56.8% in the series on RAW264.7 [3].

Turning to `Nc1cccc2c1C(=S)N(C1CCC(=S)NC1=O)C2=O` (centres undefined), the Activity with RAW264.7 [1] turned out to be 92%; in the series with RAW264.7 [2] it was 113%; in the series on RAW264.7 [3], 43%. For the same molecule, the figures for the remaining at 0.5 h, 10 µM in series [4] and in series [6] were 68% and 71%, respectively. Also, the remaining at 1 h, 10 µM in series [5] is 48%; in series [7], 53%.

For the molecule `Nc1c(F)ccc2c1C(=O)N(C1CCC(=O)NC1=O)C2=O` (centres undefined), the Activity with RAW264.7 [1] is listed as 90%; with RAW264.7 [2], 93%; with RAW264.7 [3], 100%.

Regarding `Nc1cccc2c1C(=O)N(C1CCC(=O)NC1=O)C2=O` (centres undefined) [POMALIDOMIDE], the results for the Activity with RAW264.7 [1], in the series with RAW264.7 [2] and in the series on RAW264.7 [3] were 95%, 95% and 91%, respectively.
